In data set [1] the test system is Hs766t. Nature of the data set: In cell dynamic 13C NMR of hyperpolarized [1-13C] NAC at 1T, Hs766t cells. The data set is classed as cell-based, human. The source says: FIG. 2A is a in cell dynamic ^13C NMR spectra of hyperpolarized [1-^13C] NAC at 1T NMR on 20×10^6 cells of human pancreatic tumor cell lines of Hs766t (left) and expanded spectra with 100 times magnifications at 2 seconds after the hyperpolarized [1-^13C] NAC injections in Hs766t (right);
(§1) In an embodiment, a cell dynamic ^13C NMR spectra of hyperpolarized [1-^13C] NAC at 1T NMR spectrometer on human pancreatic ductal adenocarcinoma (PDAC) cell lines, which have one of the worst prognosises among common cancers and need effective diagnostic approaches, Hs766t (FIG. 2A) and SU.86.86 (FIG. 2B), in both cases, the cell dynamic ^13C-nuclear magnetic resonance (NMR) spectra of the hyperpolarized [1-^13C] […]
(§2) All of the animal experiments were conducted in compliance with the Guide for the Care and Use of Laboratory Animal Resources, and experimental protocols were approved by the Animal Care and Use Committee, National Cancer Institute (NCI-CCR-ACUC) (National Research Council, Committee for the Update of the Guide for the Care and Use of Laboratory Animals. Guide for the care and use of laboratory animals. Washington, D.C.: Institute of Laboratory Animal Resources 2011). […] Both respiration (60-90 breaths per min) and temperature (35-37° C.) were maintained at a normal physiological range and monitored continuously during the animal experiment using the adjusted anesthesia.

Data set [2] concerns Hs766t tumor xenografts. Nature of the data set: Dynamic 13C MR spectra and CSI of hyperpolarized [1-13C] NAC at 3T MRI, Hs766t tumor xenografts. The data set is classed as in vivo, mouse. As for the experimental part: (§3) All of the animal experiments were conducted in compliance with the Guide for the Care and Use of Laboratory Animal Resources, and experimental protocols were approved by the Animal Care and Use Committee, National Cancer Institute (NCI-CCR-ACUC) (National Research Council, Committee for the Update of the Guide for the Care and Use of Laboratory Animals. Guide for the care and use of laboratory animals. Washington, D.C.: Institute of Laboratory Animal Resources 2011). The human pancreatic ductal adenocarcinoma (PDAC) cell lines, […], and SU.86.86 cells, were purchased from Threshold Pharmaceuticals (Redwood City, Calif.). Human pancreatic tumor inoculated mice were generated by subcutaneous injection of 3×10^5 cells into the right hind legs of mice. Detailed conditions for cell culture and xenograft tumor development were as described previously in K. Yamamoto, J. R. Brender, T. Seki, S. Kishimoto, N. Oshima, R. Choudhuri, S. S. Adler, E. M. Jagoda, K. Saito, N. Devasahayam, P. L. Choyke, J. B. Mitchell, and M. C. Krishna, Cancer Res 2020, 80, 2087-2093, which is incorporated herein in its entirety by reference. […] Both respiration (60-90 breaths per min) and temperature (35-37° C.) were maintained at a normal physiological range and monitored continuously during the animal experiment using the adjusted anesthesia. […]

The nature of data set [3]: Hyperpolarized 13C chemical shift imaging (CSI) in healthy mouse body and head after iv injection.
Data set [4] relates to SU.86.86. Description: In cell dynamic 13C NMR of hyperpolarized [1-13C] NAC at 1T, SU.86.86 cells. It counts as cell-based, human.
Source text: FIG. 2B is a in cell dynamic ^13C NMR spectra of hyperpolarized [1-^13C] NAC at 1T NMR on 20×10^6 cells of human pancreatic tumor cell lines of SU.86.86 (left) and expanded spectra with 100 times magnifications at 2 seconds after the hyperpolarized [1-^13C] NAC injections in SU.86.86 (right);
as §1, §2

Data set [5] relates to SU.86.86 tumor xenografts. Nature of the data set: Dynamic 13C MR spectra of hyperpolarized [1-13C] NAC at 3T MRI, SU.86.86 tumor xenografts. It counts as in vivo. Conditions: SU.86.86 mouse leg xenograft, iv, FIGS. 4B, 4C. As to the method: as §3
For data set [6], the target named is T1, acylase 1 (Homo sapiens, UniProt Q03154).
T1 sequence (Q03154 1-408): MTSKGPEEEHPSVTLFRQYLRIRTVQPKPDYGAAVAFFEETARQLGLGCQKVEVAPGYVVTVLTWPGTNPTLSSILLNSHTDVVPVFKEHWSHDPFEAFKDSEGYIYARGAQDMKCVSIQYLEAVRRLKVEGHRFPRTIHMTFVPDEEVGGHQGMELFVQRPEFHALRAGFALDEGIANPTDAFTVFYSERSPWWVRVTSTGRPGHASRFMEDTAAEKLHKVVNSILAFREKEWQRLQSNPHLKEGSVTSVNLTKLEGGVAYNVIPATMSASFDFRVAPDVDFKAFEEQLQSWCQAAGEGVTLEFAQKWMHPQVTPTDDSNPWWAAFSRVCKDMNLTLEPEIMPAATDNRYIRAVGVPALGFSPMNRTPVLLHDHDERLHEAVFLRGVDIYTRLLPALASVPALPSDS
Nature of the data set: In vitro enzymatic assay of hyperpolarized NAC incubated with acylase 1 (1T NMR). It counts as biochemical. Conditions: without inhibitor.

Regarding `CC(=O)N[C@@H](CS)[13C](=O)O` [[1-^13C] NAC, [1-^13C] N-acetyl cysteine], the “NAC-GSH formation in cell culture” value in data set [1] (Hs766t, 20×10^6 cells, FIG. 2C) is “can produce NAC-glutathione (NAC-GSH)”; in data set [4] (SU.86.86, 20×10^6 cells, FIG. 2C), “can produce NAC-glutathione (NAC-GSH)”. Besides, the cell membrane permeation result in data set [1] (PDAC cell cultures (Hs766t and SU.86.86), suggested by the rapid kinetics of NAC-GSH formation) is on record as “may permeabilize through cell membranes without active transport”. Further, in data set [2] (Hs766t compared with SU.86.86 tumors, FIGS. 4C and 4D), the “amount of NAC-GSH formed” value is “higher in Hs766t than in SU.86.86 tumors”. Further, the “NAC-GSH formation in tumor” value in data set [2] (Hs766t mouse leg xenograft, iv, FIGS. 4A, 4C) is on record as “rapidly formed”; in data set [5] it was “rapidly formed”. The “time to global distribution throughout the mouse body after injection” value in data set [3] (healthy mouse, iv tail vein cannula, 13C CSI) is at most 30 s. Moreover, the “tissue distribution: lung region signal” value in data set [3] (healthy mouse, iv, 13C CSI, FIG. 6A) is recorded as “lower signal”. The “metabolites in the liver and kidney regions” value in data set [3] (normal mice, in vivo, no imposed oxidative stress) is reported as “not observed”. In addition, in data set [4] (SU.86.86 compared with Hs766t), the NAC-GSH concentrations result was “Lower concentrations NAC-GSH”. In addition, the “enzymatic conversion by acylase 1” value in data set [6] was “immediate production of cysteine”.

Source of the values: US20230068456A1, “REAL-TIME MONITORING OF IN VIVO FREE RADICAL SCAVENGERS THROUGH HYPERPOLARIZED N-ACETYL CYSTEINE ISOTOPES” (THE UNITED STATES OF AMERICA, AS REPRESENTED BY THE …, priority 2020, published 2023).
